Results published in the NIST ThermoML archive (doi:10.1007/s10765-011-1087-7).
Numbers after ± are expanded uncertainties.

Legend:
[1] = xn = mol fraction of the nth substance listed; conditions: 101 kPa, Liquid; for speed of sound: Pulse-echo method
[2] = refractive index (Na D-line) (dimensionless); xn = mol fraction of the nth substance listed; conditions: 101 kPa, Liquid

Clc1ccc(Cl)c(Cl)c1 [1,2,4-trichlorobenzene] + CCCCCCC(C)O
Conditions | mass density, [1] [kg/m3] | refractive index, [2] | speed of sound, [1] [m/s] | viscosity, [1] [mPa·s]
298.15 K, x1 = 0.0762 | 863.97 ± 0.5 | 1.4309 ± 0.0012 | 1301.7 ± 1.3 | 5.912 ± 0.18
298.15 K, x1 = 0.1303 | 896.31 ± 0.43 | 1.4366 ± 0.0012 | 1296.7 ± 1.3 | 5.452 ± 0.17
298.15 K, x1 = 0.2045 | 939.57 ± 0.35 | 1.4436 ± 0.0012 | 1290.1 ± 1.3 | 4.912 ± 0.16
298.15 K, x1 = 0.2713 | 977.28 ± 0.28 | 1.4501 ± 0.0012 | 1283.7 ± 1.3 | 4.455 ± 0.15
298.15 K, x1 = 0.3461 | 1018.61 ± 0.28 | 1.4569 ± 0.0012 | 1278 ± 1.3 | 3.981 ± 0.13
298.15 K, x1 = 0.4173 | 1057.62 ± 0.35 | 1.4631 ± 0.0012 | 1273.2 ± 1.3 | 3.575 ± 0.12
298.15 K, x1 = 0.4857 | 1095.63 ± 0.43 | 1.4698 ± 0.0012 | 1269.8 ± 1.2 | 3.223 ± 0.11
298.15 K, x1 = 0.5454 | 1129.39 ± 0.5 | 1.4758 ± 0.0012 | 1267 ± 1.2 | 2.955 ± 0.099
298.15 K, x1 = 0.6115 | 1167.72 ± 0.58 | 1.4834 ± 0.0012 | 1264.2 ± 1.2 | 2.699 ± 0.091
298.15 K, x1 = 0.6798 | 1209.26 ± 0.66 | 1.4919 ± 0.0012 | 1261.9 ± 1.2 | 2.462 ± 0.084
298.15 K, x1 = 0.7466 | 1252.54 ± 0.75 | 1.5009 ± 0.0012 | 1259.9 ± 1.2 | 2.281 ± 0.078
298.15 K, x1 = 0.8183 | 1302 ± 0.86 | 1.5119 ± 0.0012 | 1259.2 ± 1.2 | 2.118 ± 0.073
298.15 K, x1 = 0.8713 | 1341.45 ± 0.94 | 1.521 ± 0.0012 | 1260.4 ± 1.2 | 2.035 ± 0.07
298.15 K, x1 = 0.9361 | 1392.95 ± 1.1 | 1.534 ± 0.0012 | 1264.2 ± 1.2 | 1.945 ± 0.067
298.15 K, x1 = 1 | 1448.41 ± 1.1 | 1.548 ± 0.0012 | 1272 ± 1.2 | 1.926 ± 0.067
303.15 K, x1 = 0.0762 | 860.11 ± 0.5 | 1.4285 ± 0.0012 | 1283.9 ± 1.3 | 4.79 ± 0.16
303.15 K, x1 = 0.1303 | 892.4 ± 0.44 | 1.4337 ± 0.0012 | 1279.1 ± 1.3 | 4.507 ± 0.15
303.15 K, x1 = 0.2045 | 935.51 ± 0.36 | 1.4406 ± 0.0012 | 1273 ± 1.3 | 4.124 ± 0.14
303.15 K, x1 = 0.2713 | 973.11 ± 0.29 | 1.4469 ± 0.0012 | 1266.9 ± 1.3 | 3.783 ± 0.12
303.15 K, x1 = 0.3461 | 1014.26 ± 0.27 | 1.4539 ± 0.0012 | 1261.6 ± 1.3 | 3.433 ± 0.11
303.15 K, x1 = 0.4173 | 1053.06 ± 0.34 | 1.4607 ± 0.0012 | 1256.9 ± 1.2 | 3.12 ± 0.11
303.15 K, x1 = 0.4857 | 1090.83 ± 0.42 | 1.4676 ± 0.0012 | 1253.5 ± 1.2 | 2.849 ± 0.096
303.15 K, x1 = 0.5454 | 1124.39 ± 0.49 | 1.474 ± 0.0012 | 1250.5 ± 1.2 | 2.632 ± 0.089
303.15 K, x1 = 0.6115 | 1162.51 ± 0.57 | 1.4818 ± 0.0012 | 1248 ± 1.2 | 2.405 ± 0.082
303.15 K, x1 = 0.6798 | 1203.8 ± 0.65 | 1.4905 ± 0.0012 | 1245.6 ± 1.2 | 2.205 ± 0.076
303.15 K, x1 = 0.7466 | 1246.93 ± 0.74 | 1.4999 ± 0.0012 | 1244.1 ± 1.2 | 2.045 ± 0.071
303.15 K, x1 = 0.8183 | 1296.19 ± 0.84 | 1.511 ± 0.0012 | 1243.5 ± 1.2 | 1.909 ± 0.066
303.15 K, x1 = 0.8713 | 1335.49 ± 0.93 | 1.5202 ± 0.0012 | 1244.9 ± 1.2 | 1.821 ± 0.063
303.15 K, x1 = 0.9361 | 1386.92 ± 1 | 1.5329 ± 0.0012 | 1248.7 ± 1.2 | 1.769 ± 0.062
303.15 K, x1 = 1 | 1442.43 ± 1.1 | 1.546 ± 0.0012 | 1256.4 ± 1.2 | 1.76 ± 0.061
308.15 K, x1 = 0.0762 | 855.92 ± 0.51 | 1.4271 ± 0.0012 | 1266.3 ± 1.3 | 3.886 ± 0.13
308.15 K, x1 = 0.1303 | 887.97 ± 0.45 | 1.4325 ± 0.0012 | 1261.9 ± 1.3 | 3.674 ± 0.12
308.15 K, x1 = 0.2045 | 930.81 ± 0.37 | 1.4396 ± 0.0012 | 1255.8 ± 1.3 | 3.413 ± 0.11
308.15 K, x1 = 0.2713 | 968.5 ± 0.3 | 1.4459 ± 0.0012 | 1250.3 ± 1.3 | 3.169 ± 0.11
308.15 K, x1 = 0.3461 | 1009.82 ± 0.26 | 1.4525 ± 0.0012 | 1244.9 ± 1.2 | 2.915 ± 0.098
308.15 K, x1 = 0.4173 | 1048.71 ± 0.34 | 1.4591 ± 0.0012 | 1240.3 ± 1.2 | 2.674 ± 0.091
308.15 K, x1 = 0.4857 | 1086.14 ± 0.41 | 1.4658 ± 0.0012 | 1237.1 ± 1.2 | 2.456 ± 0.084
308.15 K, x1 = 0.5454 | 1119.57 ± 0.48 | 1.4718 ± 0.0012 | 1234.6 ± 1.2 | 2.296 ± 0.079
308.15 K, x1 = 0.6115 | 1157.41 ± 0.56 | 1.4792 ± 0.0012 | 1232 ± 1.2 | 2.117 ± 0.073
308.15 K, x1 = 0.6798 | 1198.89 ± 0.64 | 1.4877 ± 0.0012 | 1229.9 ± 1.2 | 1.961 ± 0.068
308.15 K, x1 = 0.7466 | 1241.6 ± 0.73 | 1.4969 ± 0.0012 | 1228.4 ± 1.2 | 1.827 ± 0.064
308.15 K, x1 = 0.8183 | 1290.6 ± 0.83 | 1.5078 ± 0.0012 | 1228 ± 1.2 | 1.725 ± 0.06
308.15 K, x1 = 0.8713 | 1329.97 ± 0.92 | 1.517 ± 0.0012 | 1229.3 ± 1.2 | 1.666 ± 0.058
308.15 K, x1 = 0.9361 | 1381.4 ± 1 | 1.5295 ± 0.0012 | 1233.4 ± 1.2 | 1.628 ± 0.057
308.15 K, x1 = 1 | 1436.45 ± 1.1 | 1.543 ± 0.0012 | 1240.9 ± 1.2 | 1.617 ± 0.057
